Where two headings read alike, the source gives them in different places.
Assays:
[1] = system: Sp1 transcription factor binding to the major groove of Sp1 site; details: by competition for binding or altering DNA conformation
Text: (§1) The […] (IE) ICP4 gene of HSV is essential for HSV replication.

HSV-2 = experiment: Mouse vaginal model of HSV-2 infection; assay type: in vivo, CF-1 mice; details: for animals infected: 10 mice per group
Experimental: The efficacies of […] (FIG. 8A) and […] (FIG. 8A) against HSV-2 in a mouse vaginal model system have also been examined. […] At the end of three days, the vaginal lavages were collected from the washings of the vagina regions. The status of the vaginal HSV-2 infection and replication were examined by their cytopathic effects on cultured human foreskin fibroblast cells. Monitoring and scoring were carried out by three persons independently.

HSV-1 [2] = experiment: Mutation-insensitivity: IC50 against HSV-1 over ten virus passages; assay type: cell-based
Text: In contrast, host factors, unlike viral factors, are under no selective pressure to mutate and are in general structurally invariable. […] Table 1 compares the IC50 of M4N and acyclovir for ten passages.

Sp1 enhancer sequence = details: ethidium displacement; G4N concentration causing 50% reduction of DNA-ethidium fluorescence
Text: as §1

HSV-1 [3] = details: for efficacy against HSV-1 cutaneous infection: day 6
Experimental: The dorsal cutaneous guinea pig model system is a well-established model for HSV-1 infection.
In FIGS. 6A-6D, for topical treatment with M4N sections of shaved and depilated dorsal guinea pig skin were infected equally were infected with HSV-1.
McKrae strain). […] Treatments were administered twice daily and photogragphs were taken at day 6 post-infection. […] Regions 1 and 4 were infected with high levels of HSV-1 (1×10^8 pfu/mL), regions 2 and 5 were infected with moderate levels of HSV-1 (1×10^6 pfu/mL) and regions 3 and 6 were infected with low levels of HSV-1 (1×10^4 pfu/mL).

HSV-1 [4] = details: topical application for six days in guinea pigs, up to 50 mM; reference (34); cited from earlier work
[5] = system: acyclovir-resistant strains of HSV-1 (HSV-1^R); details: read-out: Inhibitory Concentration (IC50 or EC50)
HSV-1 [6] = details: read-out: Inhibitory Concentration (IC50 or EC50)
HIV-1 = details: read-out: Inhibitory Concentration (IC50 or EC50), Cos cells
SIVmac239 = details: read-out: Inhibitory Concentration (IC50 or EC50), 174 × CEM cells
HSV-1^R = details: 40 μM; explanted mouse trigeminal ganglia
HIV-1RTMF = details: read-out: Inhibitory Concentration (IC50 or EC50), H9 cells

For CC(Cc1ccc(OCCN2CCCCC2)c(OCCN2CCCCC2)c1)C(C)Cc1ccc(OCCN2CCCCC2)c(OCCN2CCCCC2)c1 (stereo not shown) [P4N, tetra-O—(N-ethylpiperidinyl)-nordihydroguaiaretic acid], the “disruption of Sp1 transcription factor binding” value [1] was “disrupt Sp1 transcription factor binding”, the “average scale of infection” value (HSV-2; 10 mM) was 0.19 and the animals infected (HSV-2; 10 mM) was 2 of 10. The “efficacy against vaginal HSV-2 infection” value (HSV-2; in PBS) was “quite effective”.
In the case of Nc1nc2c(ncn2COCCO)c(=O)[nH]1 [Acyclovir, acyclovir, reference compound], the IC50 (HSV-1 [2]; Human alphaherpesvirus 1, HSV-1 passage 1) is reported as 7.54 µM, the IC50 (HSV-1 [2]; Human alphaherpesvirus 1, HSV-1 passage 2) is reported as 37.8 µM and the IC50 (HSV-1 [2]; Human alphaherpesvirus 1, HSV-1 passage 3) is reported as 88.8 µM. For the same compound, the IC50 (HSV-1 [2]; Human alphaherpesvirus 1, HSV-1 passage 4) was 138 µM, the IC50 (HSV-1 [2]; Human alphaherpesvirus 1, HSV-1 passage 5) was 111 µM and the IC50 (HSV-1 [2]; Human alphaherpesvirus 1, HSV-1 passage 6) was 131 µM. For the same compound, the IC50 (HSV-1 [2]; Human alphaherpesvirus 1, HSV-1 passage 7) was 190 µM, the IC50 (HSV-1 [2]; Human alphaherpesvirus 1, HSV-1 passage 8) was 444 µM and the IC50 (HSV-1 [2]; Human alphaherpesvirus 1, HSV-1 passage 9) was 379 µM. The IC50 (HSV-1 [2]; Human alphaherpesvirus 1, HSV-1 passage 10) was 444 µM.
For C[C@H](Cc1ccc(OC(=O)CN(C)C)c(OC(=O)CN(C)C)c1)[C@@H](C)Cc1ccc(OC(=O)CN(C)C)c(OC(=O)CN(C)C)c1 [G4N, tetra-O—(N,N-dimethyl)glycyl-nordihydroguaiaretic acid], the “apparent equilibrium binding constant (Kapp)” value (Sp1 enhancer sequence) was 3e+06 M⁻¹, the average infection score (HSV-2; 0.1 mM) was 0.5 and the infection (HSV-2; 0.1 mM) was ~12.5%. The animals infected (HSV-2; 0.1 mM, vaginal lavage at three days) was 1 out of 10, the animals infected (HSV-2; 10 mM) was “no infections detected” and the animals infected (HSV-2; 100 mM) was “no infections detected”. For the same compound, the “efficacy against HSV-1 cutaneous infection” value (HSV-1 [3]; 5 mM topically twice daily, 1×10^8 pfu/mL McKrae) was “semi-effective”, the “efficacy against HSV-1 cutaneous infection” value (HSV-1 [3]; 10 mM topically twice daily, 1×10^8 pfu/mL McKrae) was “more effective” and the “efficacy against HSV-1 cutaneous infection” value (HSV-1 [3]; 150 mM topically twice a day, 1×10^4 to 1×10^8 pfu/mL) was “extremely effective”. For the same compound, the “inhibition of HSV-1 induced cutaneous lesion formation and viral shedding” value (HSV-1 [3]; topical application, guinea pig) was “effectively inhibited HSV-1 induced cutaneous lesion formation and viral shedding”, the toxicity (HSV-1 [4]) was “no evidence of toxicity” and the IC50 ([5]; HSV-1^R F59878) was 2.1 µM. The IC50 ([5]; HSV-1^R T28387) was 4.3 µM, the IC50 (HSV-1 [6]; HSV-1 McKrae (Vero from row above)) was 4.5 µM and the IC50 (HSV-1 [6]; Vero cells, HSV-1 KOS) was 3.6 µM. The IC50 (HIV-1) was 36 µM, the IC50 (SIVmac239) was 5 µM and the “decrease in HSV reactivation” value (HSV-1^R) was 40 μM had 67%. It also gave an IC50 (HIV-1RTMF) of 12 µM.
In the case of COc1cc(CC(C)C(C)Cc2ccc(O)c(O)c2)ccc1O (stereo not shown) [Mal.4, 3′-O-methyl nordihydroguaiaretic acid], the IC50 (HIV-1) is reported as 25 µM.

Source: patent publication US20090156638A1, “Uses of nordihydroguaiaretic acid (NDGA) and derivatives thereof in preventing transmission of sexually transmitted diseases” (priority 2007, published 2009)
